# Assay results taken from patent publication US8987250B2 (Gilead Sciences, Inc., priority 2012, dated 2015).
# Tested on: HIV-IIIb
# Test: Test A: Antiviral Assay in MT4 Cells
# Type: cell-based
# Conditions: Human immunodeficiency virus 1, IIIB, MT4, 120 h
# Experimental: The antiviral properties of a compound of the invention may be determined using Test A described below.
# Test A: Antiviral Assay in MT4 Cells
# For the antiviral assay utilizing MT-4 cells, 0.4 μL of […] test concentration of 3-fold serially diluted compound in DMSO was added to 40 μL of cell growth medium (RPMI 1640, 10% FBS, 1% penicilline/Streptomycine, 1% L-Glutamine, 1% HEPES) in each well of 384-well assay plates (10 concentrations) in quadruplicate.
# One mL aliquots of 2×10e6 MT-4 cells were pre-infected for 1 and 3 hours respectively, @ 37° C. with 25 uL (MT4) or of either cell growth medium (mock-infected) or a fresh 1:250 dilution of an HIV-IIIb concentrated ABI stock (0.004m.o.i. for MT4 cells). Infected and uninfected cells were diluted in cell growth medium and 35 uL of 2000 (for MT4) cells was added to each well of the assay plates.
# Assay plates were then incubated in a 37° C. incubator. After 5 days of incubation, […] of 2× concentrated CellTiter-Glo™ Reagent (catalog #G7573, Promega Biosciences, Inc., Madison, Wis.) was added to each well of the assay plate. Cell lysis was carried out by incubating at room temperature for 2-3 min and then chemiluminescence was read using the Envision reader (PerkinElmer). […]
row,Compound,EC50
1,"Cc1cc2nc(-c3ccnc(N4CCn5c(nnc5C(F)(F)F)C4)c3)sc2c(-c2ccc(Cl)cc2)c1[C@H](OC(C)(C)C)C(=O)O [Compound 222, (S)-2-tert-butoxy-2-(7-(4-chlorophenyl)-5-methyl-2-(2-(3-(trifluoromethyl)-5,6-dihydro-[1,2,4]triazolo[4,3-a]pyrazin-7(8H)-yl)pyridin-4-yl)benzo[d]thiazol-6-yl)acetic acid]",49 nM

# Same assay, conditions: Human immunodeficiency virus 1, IIIB, MT4, 120 h, Table 1; MT-4 cells infected with HIV-IIIb, 5 days of incubation, CellTiter-Glo; read-out: EC50
row,EC50,Compound
1,26 nM,Cc1cc2nc(-c3ccnc(-c4cccc(C#N)c4)c3)sc2c(-c2ccc(Cl)cc2)c1[C@H](OC(C)(C)C)C(=O)O [Compound 156]
2,35 nM,Cc1cc2nc(-c3cccc(-c4ccc5c(cnn5C)c4)c3)sc2c(-c2ccc3c(c2)CCCO3)c1[C@H](OC(C)(C)C)C(=O)O [Compound 170]
3,92 nM,Cc1cc2nc(-c3cccc(-c4cnn(C5CCCC5)c4)c3)sc2c(-c2ccc(Cl)cc2)c1[C@H](OC(C)(C)C)C(=O)O [Compound 146]

row,Compound,EC50
1,"Cc1cc2nc(-c3ccnc(-c4ccc5[nH]ncc5c4)c3)sc2c(-c2ccc(Cl)cc2)c1[C@H](OC(C)(C)C)C(=O)O [Compound 115, (S)-2-(2-(2-(1H-indazol-5-yl)pyridin-4-yl)-7-(4-chlorophenyl)-5-methylbenzo[d]thiazol-6-yl)-2-tert-butoxyacetic acid]",13 nM
2,"Cc1cc2nc(-c3cnc4c(c3)c(C)cn4C)sc2c(-c2ccc(Cl)cc2)c1[C@H](OC(C)(C)C)C(=O)O [Compound 121, (S)-2-tert-butoxy-2-(7-(4-chlorophenyl)-2-(1,3-dimethyl-1H-pyrrolo[2,3-b]pyridin-5-yl)-5-methylbenzo[d]thiazol-6-yl)acetic acid]",27 nM

# Same assay, conditions: Human immunodeficiency virus 1, IIIB, MT4, 120 h, Table 2; MT-4 cells infected with HIV-IIIb, 5 days of incubation, CellTiter-Glo; read-out: EC50
row,Compound,EC50
1,"Cc1cc2nc(-c3ccnc(-c4ccc(=O)[nH]c4)c3)sc2c(-c2ccc(Cl)cc2)c1[C@H](OC(C)(C)C)C(=O)O [Compound 230, (S)-2-tert-butoxy-2-(7-(4-chlorophenyl)-5-methyl-2-(2-(6-oxo-1,6-dihydropyridin-3-yl)pyridin-4-yl)benzo[d]thiazol-6-yl)acetic acid]",131 nM
2,Cc1cc2nc(-c3cnc4c(c3)c(C3=CCN(C)CC3)cn4C)sc2c(-c2ccc(Cl)cc2)c1[C@H](OC(C)(C)C)C(=O)O [Compound 378],51 nM
3,COc1ncc(-c2cc(-c3nc4cc(C)c([C@H](OC(C)(C)C)C(=O)O)c(-c5ccc(Cl)cc5)c4s3)ccn2)cn1 [Compound 402],35 nM
4,"Cc1cc2nc(-c3cccc(-c4ccc5c(cnn5C)c4)n3)sc2c(-c2ccc(Cl)cc2)c1[C@H](OC(C)(C)C)C(=O)O [Compound 309, (S)-2-tert-butoxy-2-(7-(4-chlorophenyl)-5-methyl-2-(6-(1-methyl-1H-indazol-5-yl)pyridin-2-yl)benzo[d]thiazol-6-yl)acetic acid]",37 nM
5,"Cc1cc2nc(-c3ccc4c(=O)n(C)n(C)c4c3)sc2c(-c2ccc(Cl)cc2)c1[C@H](OC(C)(C)C)C(=O)O [Compound 194, (S)-2-tert-butoxy-2-(7-(4-chlorophenyl)-2-(1,2-dimethyl-3-oxo-2,3-dihydro-1H-indazol-6-yl)-5-methylbenzo[d]thiazol-6-yl)acetic acid]",21 nM
6,"Cc1cc2nc(-c3ccc4c(c3)c(C3CC3)nn4C)sc2c(-c2ccc(Cl)cc2)c1[C@H](OC(C)(C)C)C(=O)O [Compound 264, (S)-2-tert-butoxy-2-(7-(4-chlorophenyl)-2-(3-cyclopropyl-1-methyl-1H-indazol-5-yl)-5-methylbenzo[d]thiazol-6-yl)acetic acid]",17 nM
7,"Cc1cc2nc(-c3ccnc(N4CCN(C(C)(C)C)CC4)n3)sc2c(-c2ccc(Cl)cc2)c1[C@H](OC(C)(C)C)C(=O)O [Compound 465, (S)-2-tert-butoxy-2-(2-(2-(4-tert-butylpiperazin-1-yl)pyrimidin-4-yl)-7-(4-chlorophenyl)-5-methylbenzo[d]thiazol-6-yl)acetic acid]",2 nM
8,Cc1cc2nc(-c3ccc(-c4cnc(=O)[nH]c4)cc3)sc2c(-c2ccc(Cl)cc2)c1[C@H](OC(C)(C)C)C(=O)O [Compound 356],3330 nM
9,CNc1nn(C)c2cc(-c3nc4cc(C)c([C@H](OC(C)(C)C)C(=O)O)c(-c5ccc(Cl)cc5)c4s3)ccc12 [Compound 445],5 nM
10,Cc1cc2nc(-c3ccc4nn(C)c(C)c4n3)sc2c(-c2ccc(Cl)cc2)c1[C@H](OC(C)(C)C)C(=O)O [Compound 359],21 nM
11,"CCc1cnn2cc(-c3nc4cc(C)c([C@H](OC(C)(C)C)C(=O)O)c(-c5ccc(Cl)cc5)c4s3)cnc12 [Compound 227, (S)-2-tert-butoxy-2-(7-(4-chlorophenyl)-2-(3-ethylpyrazolo[1,5-a]pyrimidin-6-yl)-5-methylbenzo[d]thiazol-6-yl)acetic acid]",85 nM
12,Cc1cc2nc(-c3ccnc(-c4cnn(C(C)(C)C)c4)c3)sc2c(-c2ccc(Cl)cc2)c1[C@H](OC(C)(C)C)C(=O)O [Compound 408],27 nM
13,"Cc1cc2nc(-c3ccnc(N4CCOCC4)c3)sc2c(-c2ccc(Cl)cc2)c1[C@H](OC(C)(C)C)C(=O)O [Compound 218, (S)-2-tert-butoxy-2-(7-(4-chlorophenyl)-5-methyl-2-(2-morpholinopyridin-4-yl)benzo[d]thiazol-6-yl)acetic acid]",116 nM
14,"Cc1cc2nc(-c3ccc4c(N)nn(C)c4c3)sc2c(-c2ccc(Cl)cc2)c1[C@H](OC(C)(C)C)C(=O)O [Compound 266, (S)-2-(2-(3-amino-1-methyl-1H-indazol-6-yl)-7-(4-chlorophenyl)-5-methylbenzo[d]thiazol-6-yl)-2-tert-butoxyacetic acid]",10 nM
15,"Cc1cc2nc(-c3ccc4c(c3)c(-c3cncnc3)nn4C)sc2c(-c2ccc(Cl)cc2)c1[C@H](OC(C)(C)C)C(=O)O [Compound 497, (S)-2-tert-butoxy-2-(7-(4-chlorophenyl)-5-methyl-2-(1-methyl-3-(pyrimidin-5-yl)-1H-indazol-5-yl)benzo[d]thiazol-6-yl)acetic acid]",4 nM
16,"Cc1cc2nc(-c3ccnc(N4CCCN(C)CC4)n3)sc2c(-c2ccc(Cl)cc2)c1[C@H](OC(C)(C)C)C(=O)O [Compound 477, (S)-2-tert-butoxy-2-(7-(4-chlorophenyl)-5-methyl-2-(2-(4-methyl-1,4-diazepan-1-yl)pyrimidin-4-yl)benzo[d]thiazol-6-yl)acetic acid]",14 nM
17,Cc1cc2nc(-c3ccc4nc(C)n(C5CCN(C)CC5)c4c3)sc2c(-c2ccc(Cl)cc2)c1[C@H](OC(C)(C)C)C(=O)O [Compound 413],33 nM
18,Cc1cc2nc(-c3ccc4cnccc4c3)sc2c(-c2ccc(Cl)cc2)c1[C@H](OC(C)(C)C)C(=O)O [Compound 427],14 nM

# Same assay, conditions: Table 1; MT-4 cells infected with HIV-IIIb, 5 days of incubation, CellTiter-Glo; read-out: EC50
row,Compound,EC50
1,"Cc1cc2nc(N3CCCC3)sc2c(-c2ccc3c4c(ccnc24)CCO3)c1[C@H](OC(C)(C)C)C(=O)O (atropisomer, axis not shown) [Compound 50, (S)-2-tert-butoxy-2-((S)-7-(2,3-dihydropyrano[4,3,2-de]quinolin-7-yl)-5-methyl-2-(pyrrolidin-1-yl)benzo[d]thiazol-6-yl)acetic acid]",52.8 nM
2,"COC1CN(c2nc3cc(C)c([C@H](OC(C)(C)C)C(=O)O)c(-c4ccc5c6c(ccnc46)CCO5)c3s2)C1 (atropisomer, axis not shown) [Compound 54, (S)-2-tert-butoxy-2-((S)-7-(2,3-dihydropyrano[4,3,2-de]quinolin-7-yl)-2-(3-methoxyazetidin-1-yl)-5-methylbenzo[d]thiazol-6-yl)acetic acid]",274 nM
